Test results: patent publication US4663325A, “1-(2,3,4-tri-methoxybenzyl)-4[bis(4-fluorophenyl)methyl] piperazines are useful for treating cerebrovascular disease” (Kanebo Ltd., priority 1984, dated 1987)

Legend:
[1] = Acute toxicity (oral, mice); conditions: mouse, in vivo, fasted male ddY mice, deaths during seven days, Weil method
Experimental: ddY-strain male mice (body weight 18 to 22 g; five per group) were caused to fast 24 hours. Then, each of the compounds of this invention (A, B, C and D) was administered orally, and acute toxicity values (LD50) were determined.
Each of the compounds was dissolved or suspended in a 2% tartaric acid solution containing 20% of dimethylacetamide, and orally administered to the animals. From the number of animals which died during seven days, the LD50 values were calculated by using the Weil method.

[2] = tested on: death induced by collagen and adrenaline; experiment: Activity of defending thromboembolism-induced death (collagen and adrenaline, mice, oral); assay type: in vivo, ddY-strain male mice; conditions: Mus musculus, 1 h, one hour before collagen (400 micrograms/kg) and adrenaline (50 micrograms/kg) i.v., male ddY mice, probit method, read-out: ED50 (dose required to defend death induced by collagen and adrenaline to an extent of 50%)
Experimental: The compounds A, B, C and D of the invention and the comparative compounds 1 and 2 were used.
Each of the test compounds was dissolved or suspended in a 1% gum arabic solution, and orally administered to ddY-strain male mice (body weight 18 to 25 g; five per group). […] The dose required to defend death induced by collagen and adrenaline to an extent of 50% (ED50) was determined by the probit method (see The Journal of Pharmacology and Experimental Therapeutics, Vol. 225, page 57, 1983).

vertebral blood flow = experiment: Activity of increasing cerebral blood flow (vertebral blood flow as index, anesthetized dogs, intravenous); assay type: in vivo; conditions: 1 mg/kg i.v. (right femoral vein), anesthetized mongrel dogs
Experimental: The activity of increasing cerebral blood flow was measured by using the amount of vertebral blood flow as an index. Mongrel dogs of either sex (body weight 11 to 18 kg; four per groups) were anesthetized with sodium pentobarbital (30 mg/kg, by intravenous injection), and the right vertebral artery was isolated from the surrounding tissues. A flow probe was attached to it and led to an electromagnetic flow meter (MFV-2100 made by Nihon Kohden Co., Ltd.). The amount of blood flow was periodically measured [see Meth and Find Exptl Clin Pharmacol, 3 (6), 397 (1981)].
Each of the test compounds was dissolved in a 2% tartaric acid solution containing 20% dimethylacetamide, and administered to the right femoral vein in a dose of 1 mg/kg.

[3] = 0.5 minutes after administration
[4] = 10 minutes after administration
[5] = 20 minutes after administration

Structure (SMILES) | LD50 at 168 h [1] [mg/kg] | ED50 [2] [mg/kg] | Increase (%) in vertebral blood flow (mean ± standard error) (vertebral blood flow; [3]) [%] | Increase (%) in vertebral blood flow (mean ± standard error) (vertebral blood flow; 3 minutes after administration) [%] | Increase (%) in vertebral blood flow (mean ± standard error) (vertebral blood flow; 5 minutes after administration) [%] | Increase (%) in vertebral blood flow (mean ± standard error) (vertebral blood flow; [4]) [%] | Increase (%) in vertebral blood flow (mean ± standard error) (vertebral blood flow; [5]) [%]
COc1ccc(CN2CCN(C(c3ccccc3)c3ccc(F)cc3)CC2)c(OC)c1.O=C(O)/C=C/C(=O)O (stereo not drawn) [A, 1-(2,4-Dimethoxybenzyl)-4-(4-fluorobenzhydryl)-piperazine fumarate] | 300 | 29.6 | 80.1 ± 17.0 | 56.5 ± 15.0 | 39.1 ± 12.2 | 16.2 ± 5.4 | 11.3 ± 4.1
C(=Cc1ccccc1)CN1CCN(C(c2ccccc2)c2ccccc2)CC1 [Cinnarizine, 1-Cinnamyl-4-benzhydrylpiperazine, reference compound] |  |  | 65.6 ± 18.2 | 34.7 ± 15.6 | 17.0 ± 8.7 | 2.9 ± 3.8 | 0
COc1ccc(CN2CCN(C(c3ccc(F)cc3)c3ccc(F)cc3)CC2)c(OC)c1OC.Cl.Cl [Compound D, 1-(2,3,4-Trimethoxybenzyl)-4-[bis(4-fluorophenyl)methyl]piperazine dihydrochloride] | 300 | 7.7 | 95.9 ± 14.5 | 102.6 ± 24.5 | 107.0 ± 23.9 | 87.0 ± 21.1 | 65.1 ± 15.3
COc1ccc(CN2CCN(C(c3ccccc3)c3ccc(F)cc3)CC2)c(OC)c1OC.O=C(O)/C=C/C(=O)O (stereo not drawn) [C, 1-(2,3,4-Trimethoxybenzyl)-4-(4-fluorobenzhydryl)piperazine fumarate] | 650 | 32.7 | 76.7 ± 15.1 | 61.2 ± 14.9 | 50.6 ± 12.4 | 27.7 ± 6.3 | 16.4 ± 4.6
Cl.Cl.c1ccc(C(c2ccccc2)N2CCN(Cc3ccc4c(c3)OCO4)CC2)cc1 [compound 2, 1-(3,4-Methylenedioxybenzyl)-4-benzhydrylpiperazine dihydrochloride, reference compound] |  | 44.7 | 50.6 ± 13.2 | 13.5 ± 6.9 | 7.4 ± 4.9 | 2.5 ± 3.3 | 0.4 ± 2.2
COc1ccc(CN2CCN(C(c3ccccc3)c3ccccc3)CC2)c(OC)c1OC.Cl.Cl.O [compound 1, 1-(2,3,4-Trimethoxybenzyl)-4-benzhydrylpiperazine dihydrochloride monohydrate, reference compound] |  | 55.4 | 75.3 ± 20.0 | 39.2 ± 15.3 | 25.6 ± 12.5 | 10.0 ± 5.3 | 5.0 ± 3.3
COc1ccc(CN2CCN(C(c3ccc(F)cc3)c3ccc(F)cc3)CC2)c(OC)c1.Cl.Cl.O.O [B, 1-(2,4-Dimethoxybenzyl)-4-[bis(4-fluorophenyl)-methyl]piperazine dihydrochloride dihydrate] | 225 | 24.6 | 105.6 ± 3.9 | 85.8 ± 15.0 | 77.0 ± 15.6 | 47.5 ± 17.7 | 27.1 ± 13.4
